{"source": "PubChem BioAssay AID1963959", "about": "(Molecular Pharmacology Branch, DTP, NCI, 2024)", "test_system": "T-47D spheroids with HUVEC/MSC, viability", "assay": "Anticancer human tumor T-47D cell line growth inhibition [PI3K];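 for all read-outs here: spheroids exposed to agents for seven days before reading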;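 for viability, T/C: percent of DMSO vehicle control luminescence so 100% = untreated growth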", "conditions": "for IC50: curve of first compound; for viability, T/C: stronger effect = lower value", "how_it_was_run": "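We assembled tumor spheroids that included a stromal compartment of HUVEC and MSCs, then exposed them to targeted agents alone and together with PI3K pathway inhibitors. Concentration series descended by half-log from clinically achievable Cmax levels. Viability served as the endpoint.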", "data": [{"smiles": "CC(=O)c1c(C)c2cnc(Nc3ccc(N4CCNCC4)cn3)nc2n(C2CCCC2)c1=O", "note": "+ CC(Nc1ncnc2nc[nH]c12)c1cc2cccc(Cl)c2c(=O)n1-c1ccccc1", "values": [{"measurement": "IC50", "setting": "second compound 0.0316 µM", "value": "> 100", "unit": "nM"}, {"measurement": "IC50", "setting": "second compound 0.1 µM", "value": "> 100", "unit": "nM"}, {"measurement": "IC50", "setting": "second compound 0.316 µM", "value": "> 100", "unit": "nM"}, {"measurement": "IC50", "setting": "second compound 1 µM", "value": "> 100", "unit": "nM"}, {"measurement": "IC50", "setting": "second compound 3.16 µM", "value": "> 100", "unit": "nM"}, {"measurement": "IC50", "setting": "second compound 10 µM", "value": "> 100", "unit": "nM"}, {"measurement": "viability, T/C", "setting": "second compound 0.0316 µM, first compound 0.000316 µM", "value": 96, "unit": "%"}, {"measurement": "viability, T/C", "setting": "second compound 0.0316 µM, first compound 0.001 µM", "value": 99, "unit": "%"}, {"measurement": "viability, T/C", "setting": "second compound 0.0316 µM, first compound 0.00316 µM", "value": 100, "unit": "%"}, {"measurement": "viability, T/C", "setting": "second compound 0.0316 µM, first compound 0.01 µM", "value": 91.2, "unit": "%"}, {"measurement": "viability, T/C", "setting": "second compound 0.0316 µM, first compound 0.0316 µM", "value": 86.5, "unit": "%"}, {"measurement": "viability, T/C", "setting": "second compound 0.0316 µM, first compound 0.1 µM", "value": 71.3, "unit": "%"}, {"measurement": "viability, T/C", "setting": "second compound 0.1 µM, first compound 0.000316 µM", "value": 91.2, "unit": "%"}, {"measurement": "viability, T/C", "setting": "second compound 0.1 µM, first compound 0.001 µM", "value": 90.2, "unit": "%"}, {"measurement": "viability, T/C", "setting": "second compound 0.1 µM, first compound 0.00316 µM", "value": 96.1, "unit": "%"}, {"measurement": "viability, T/C", "setting": "second compound 0.1 µM, first compound 0.01 µM", "value": 73.3, "unit": "%"}, {"measurement": "viability, T/C", "setting": "second compound 0.1 µM, first compound 0.0316 µM", "value": 100, "unit": "%"}, {"measurement": "viability, T/C", "setting": "second compound 0.1 µM, first compound 0.1 µM", "value": 83.6, "unit": "%"}, {"measurement": "viability, T/C", "setting": "second compound 0.316 µM, first compound 0.000316 µM", "value": 92.8, "unit": "%"}, {"measurement": "viability, T/C", "setting": "second compound 0.316 µM, first compound 0.001 µM", "value": 93.7, "unit": "%"}, {"measurement": "viability, T/C", "setting": "second compound 0.316 µM, first compound 0.00316 µM", "value": 82, "unit": "%"}, {"measurement": "viability, T/C", "setting": "second compound 0.316 µM, first compound 0.01 µM", "value": 90.6, "unit": "%"}, {"measurement": "viability, T/C", "setting": "second compound 0.316 µM, first compound 0.0316 µM", "value": 86.9, "unit": "%"}, {"measurement": "viability, T/C", "setting": "second compound 0.316 µM, first compound 0.1 µM", "value": 84, "unit": "%"}, {"measurement": "viability, T/C", "setting": "second compound 1 µM, first compound 0.000316 µM", "value": 80.1, "unit": "%"}, {"measurement": "viability, T/C", "setting": "second compound 1 µM, first compound 0.001 µM", "value": 73.8, "unit": "%"}, {"measurement": "viability, T/C", "setting": "second compound 1 µM, first compound 0.00316 µM", "value": 79.6, "unit": "%"}, {"measurement": "viability, T/C", "setting": "second compound 1 µM, first compound 0.01 µM", "value": 89, "unit": "%"}, {"measurement": "viability, T/C", "setting": "second compound 1 µM, first compound 0.0316 µM", "value": 76.6, "unit": "%"}, {"measurement": "viability, T/C", "setting": "second compound 1 µM, first compound 0.1 µM", "value": 80.6, "unit": "%"}, {"measurement": "viability, T/C", "setting": "second compound 3.16 µM, first compound 0.000316 µM", "value": 81.2, "unit": "%"}, {"measurement": "viability, T/C", "setting": "second compound 3.16 µM, first compound 0.001 µM", "value": 88.6, "unit": "%"}, {"measurement": "viability, T/C", "setting": "second compound 3.16 µM, first compound 0.00316 µM", "value": 100, "unit": "%"}, {"measurement": "viability, T/C", "setting": "second compound 3.16 µM, first compound 0.01 µM", "value": 85.1, "unit": "%"}, {"measurement": "viability, T/C", "setting": "second compound 3.16 µM, first compound 0.0316 µM", "value": 85.8, "unit": "%"}, {"measurement": "viability, T/C", "setting": "second compound 3.16 µM, first compound 0.1 µM", "value": 69.8, "unit": "%"}, {"measurement": "viability, T/C", "setting": "second compound 10 µM, first compound 0.000316 µM", "value": 88.4, "unit": "%"}, {"measurement": "viability, T/C", "setting": "second compound 10 µM, first compound 0.001 µM", "value": 76.3, "unit": "%"}, {"measurement": "viability, T/C", "setting": "second compound 10 µM, first compound 0.00316 µM", "value": 78, "unit": "%"}, {"measurement": "viability, T/C", "setting": "second compound 10 µM, first compound 0.01 µM", "value": 70.8, "unit": "%"}, {"measurement": "viability, T/C", "setting": "second compound 10 µM, first compound 0.0316 µM", "value": 80.6, "unit": "%"}, {"measurement": "viability, T/C", "setting": "second compound 10 µM, first compound 0.1 µM", "value": 65.2, "unit": "%"}]}]}
